Data from PubChem BioAssay (NCI).
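1) Cells in 96-well plates. 2) Compound, 48 h, 5 concentrations. 3) Linear interpolation between surrounding doses. 4) Unreached endpoint = highest concentration. At the GI50, growth is halved. TGI: total growth inhibition.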

What was measured:
Experiment in all cases: inhibition of tumour cell growth, NCI panel, 48 h
786-0 renal = system: 786-0 renal
A498 renal = system: A498 renal
A549 NSCLC = system: A549 NSCLC
ACHN renal = system: ACHN renal
BT-549 breast = system: BT-549 breast
CCRF-CEM leukemia = system: CCRF-CEM leukemia
COLO 205 colon = system: COLO 205 colon
DU-145 prostate = system: DU-145 prostate
EKVX NSCLC = system: EKVX NSCLC
HCC-2998 colon = system: HCC-2998 colon
HCT-116 colon = system: HCT-116 colon
HCT-15 colon = system: HCT-15 colon
HL-60(TB) leukemia = system: HL-60(TB) leukemia
HOP-62 NSCLC = system: HOP-62 NSCLC
HOP-92 NSCLC = system: HOP-92 NSCLC
HS 578T breast = system: HS 578T breast
IGROV1 ovarian = system: IGROV1 ovarian
K-562 leukemia = system: K-562 leukemia
KM12 colon = system: KM12 colon
LOX IMVI melanoma = system: LOX IMVI melanoma
M14 melanoma = system: M14 melanoma
MALME-3M melanoma = system: MALME-3M melanoma
MCF7 breast = system: MCF7 breast
MDA-MB-231 breast = system: MDA-MB-231 breast
MDA-MB-435 = system: MDA-MB-435
MDA-MB-468 breast = system: MDA-MB-468 breast
NCI-H226 lung = system: NCI-H226 lung
NCI-H23 lung = system: NCI-H23 lung
NCI-H460 lung = system: NCI-H460 lung
NCI-H522 lung = system: NCI-H522 lung
NCI/ADR-RES ovarian = system: NCI/ADR-RES ovarian
OVCAR-3 ovarian = system: OVCAR-3 ovarian
OVCAR-4 ovarian = system: OVCAR-4 ovarian
OVCAR-5 ovarian = system: OVCAR-5 ovarian
OVCAR-8 ovarian = system: OVCAR-8 ovarian
PC-3 prostate = system: PC-3 prostate
RPMI-8226 leukemia = system: RPMI-8226 leukemia
RXF 393 renal = system: RXF 393 renal
SF-268 CNS = system: SF-268 CNS
SF-295 CNS = system: SF-295 CNS
SF-539 CNS = system: SF-539 CNS
SK-MEL-2 melanoma = system: SK-MEL-2 melanoma
SK-MEL-5 melanoma = system: SK-MEL-5 melanoma
SK-OV-3 ovarian = system: SK-OV-3 ovarian
SN12C renal = system: SN12C renal
SNB-19 CNS = system: SNB-19 CNS
SNB-75 CNS = system: SNB-75 CNS
SW-620 colon = system: SW-620 colon
T-47D breast = system: T-47D breast
TK-10 renal = system: TK-10 renal
U251 CNS = system: U251 CNS
UACC-257 melanoma = system: UACC-257 melanoma
UACC-62 melanoma = system: UACC-62 melanoma

With `ClC(Cn1ncc2c(Nc3cccc(Br)c3)nc(SCCN3CCOCC3)nc21)c1ccc(Br)cc1` (stereo unspecified) the GI50 (786-0 renal) was 1.76 µM, the TGI (786-0 renal) was 3.35 µM and the GI50 (A498 renal) was 6.37 µM. The TGI (A498 renal) was 35.2 µM, the GI50 (A549 NSCLC) was 4.93 µM and the TGI (A549 NSCLC) was greater than 100 µM. For the same compound, the GI50 (ACHN renal) was 4.38 µM, the TGI (ACHN renal) was greater than 100 µM and the GI50 (BT-549 breast) was 11.7 µM. For the same compound, the TGI (BT-549 breast) was 27.9 µM, the GI50 (CCRF-CEM leukemia) was 2.17 µM and the TGI (CCRF-CEM leukemia) was 10.1 µM. It also gave a GI50 (COLO 205 colon) of 1.98 µM, a TGI (COLO 205 colon) of 4.48 µM and a GI50 (DU-145 prostate) of 15.1 µM. The TGI (DU-145 prostate) was greater than 100 µM, the GI50 (EKVX NSCLC) was 5.01 µM and the TGI (EKVX NSCLC) was greater than 100 µM. For the same compound, the GI50 (HCC-2998 colon) was 3.8 µM, the TGI (HCC-2998 colon) was 60 µM and the GI50 (HCT-116 colon) was 3.09 µM. It also gave a TGI (HCT-116 colon) greater than 100 µM, a GI50 (HCT-15 colon) of 1.65 µM and a TGI (HCT-15 colon) of 3.8 µM. It also gave a GI50 (HL-60(TB) leukemia) of 3.03 µM, a TGI (HL-60(TB) leukemia) greater than 100 µM and a GI50 (HOP-62 NSCLC) of 3.71 µM. The TGI (HOP-62 NSCLC) was 22.4 µM, the GI50 (HOP-92 NSCLC) was 3.5 µM and the TGI (HOP-92 NSCLC) was 23.9 µM. The GI50 (HS 578T breast) was 2.44 µM, the TGI (HS 578T breast) was 7.88 µM and the GI50 (IGROV1 ovarian) was 8 µM. For the same compound, the TGI (IGROV1 ovarian) was greater than 100 µM, the GI50 (K-562 leukemia) was 2.84 µM and the TGI (K-562 leukemia) was 26.2 µM. For the same compound, the GI50 (KM12 colon) was 2.72 µM, the TGI (KM12 colon) was 7.36 µM and the GI50 (LOX IMVI melanoma) was 1.74 µM. The TGI (LOX IMVI melanoma) was 3.24 µM, the GI50 (M14 melanoma) was 2.5 µM and the TGI (M14 melanoma) was 8.72 µM. The GI50 (MALME-3M melanoma) was 1.81 µM, the TGI (MALME-3M melanoma) was 3.53 µM and the GI50 (MCF7 breast) was 2.77 µM. The TGI (MCF7 breast) was 24.6 µM, the GI50 (MDA-MB-231 breast) was 2.25 µM and the TGI (MDA-MB-231 breast) was 4.66 µM. It also gave a GI50 (MDA-MB-435) of 3.89 µM, a TGI (MDA-MB-435) of 21.5 µM and a GI50 (MDA-MB-468 breast) of 2.52 µM. It also gave a TGI (MDA-MB-468 breast) of 6.89 µM, a GI50 (NCI-H226 lung) of 9.32 µM and a TGI (NCI-H226 lung) of 71.6 µM. For the same compound, the GI50 (NCI-H23 lung) was 3.46 µM, the TGI (NCI-H23 lung) was 18.6 µM and the GI50 (NCI-H460 lung) was 3.55 µM. For the same compound, the TGI (NCI-H460 lung) was greater than 100 µM, the GI50 (NCI-H522 lung) was 2.87 µM and the TGI (NCI-H522 lung) was 9.33 µM. It also gave a GI50 (NCI/ADR-RES ovarian) of 3.89 µM, a TGI (NCI/ADR-RES ovarian) of 97.5 µM and a GI50 (OVCAR-3 ovarian) of 10.3 µM. The TGI (OVCAR-3 ovarian) was 60 µM, the GI50 (OVCAR-4 ovarian) was 6.42 µM and the TGI (OVCAR-4 ovarian) was greater than 100 µM. The GI50 (OVCAR-5 ovarian) was 5.24 µM, the TGI (OVCAR-5 ovarian) was 30.3 µM and the GI50 (OVCAR-8 ovarian) was 6.5 µM. It also gave a TGI (OVCAR-8 ovarian) greater than 100 µM, a GI50 (PC-3 prostate) of 3.77 µM and a TGI (PC-3 prostate) greater than 100 µM. It also gave a GI50 (RPMI-8226 leukemia) of 2.03 µM, a TGI (RPMI-8226 leukemia) of 4.59 µM and a GI50 (RXF 393 renal) of 1.69 µM. For the same compound, the TGI (RXF 393 renal) was 4.49 µM, the GI50 (SF-268 CNS) was 6.94 µM and the TGI (SF-268 CNS) was greater than 100 µM. It also gave a GI50 (SF-295 CNS) of 1.78 µM, a TGI (SF-295 CNS) of 3.57 µM and a GI50 (SF-539 CNS) of 1.79 µM. It also gave a TGI (SF-539 CNS) of 3.48 µM, a GI50 (SK-MEL-2 melanoma) of 4.62 µM and a TGI (SK-MEL-2 melanoma) of 24.5 µM. For the same compound, the GI50 (SK-MEL-5 melanoma) was 2.07 µM, the TGI (SK-MEL-5 melanoma) was 4.47 µM and the GI50 (SK-OV-3 ovarian) was 6.46 µM. For the same compound, the TGI (SK-OV-3 ovarian) was greater than 100 µM, the GI50 (SN12C renal) was 6.47 µM and the TGI (SN12C renal) was greater than 100 µM. For the same compound, the GI50 (SNB-19 CNS) was 5.14 µM, the TGI (SNB-19 CNS) was greater than 100 µM and the GI50 (SNB-75 CNS) was 2.57 µM. For the same compound, the TGI (SNB-75 CNS) was 24.3 µM, the GI50 (SW-620 colon) was 2.76 µM and the TGI (SW-620 colon) was 12.6 µM. The GI50 (T-47D breast) was 3.47 µM, the TGI (T-47D breast) was greater than 100 µM and the GI50 (TK-10 renal) was 13.6 µM. It also gave a TGI (TK-10 renal) greater than 100 µM, a GI50 (U251 CNS) of 3.34 µM and a TGI (U251 CNS) of 41.3 µM. For the same compound, the GI50 (UACC-257 melanoma) was 2.82 µM, the TGI (UACC-257 melanoma) was 9.84 µM and the GI50 (UACC-62 melanoma) was 2.23 µM. The TGI (UACC-62 melanoma) was 4.75 µM.
